For orientation: IC50 means the concentration needed to halve the response being measured. Lower therefore signals higher potency. In general, inhibition refers to the drop in the measured response relative to a control, in per cent. For orientation: EC50 means the concentration that produces a half-maximal response.

The values below come from US20030224978A1, “Compounds and methods for modulating apoptosis” (McGill University, priority 1996, published 2003).

“Also recorded” adds a separate entry of the source. Positions of bridges follow the written chain, without caps; N, C: chain ends. Residues, ends and D or L forms follow the SMILES beside them.

What all share (type): cell-based
The nature of data set [1]: in vitro. Conditions: human. On the procedure:
(§1) N-Ac-CHAVC-NH2 (SEQ ID NO:10) and the control peptide N-Ac-CHGVC-NH2 (SEQ ID NO:20) were evaluated for possible cytotoxic effects on human microvascular endothelial (HMVEC; Clonetics), human umbilical vein endothelial (HUVEC; ATCC #CRL-1730), IAFp2 (human fibroblast cell line; Institute Armand-Frapier, Montreal, Quebec), WI-38 (human fibroblast cell line; ATCC #CCL-75), MDA-MB231 (human breast cancer cell line; ATCC #HTB-26), and PC-3 (human prostate cancer cell line; ATCC #CRL-1435) cells utilizing the MTT assay (Plumb et al., Cancer Res. 49:4435-4440, 1989). Neither of the peptides was cytotoxic at concentrations up to and including 100 μM. Similarly, neither of the peptides was capable of inhibiting the proliferation of the above cell lines at concentrations up to 100 μM, as judged by ^3H-thymidine incorporation assays.

A short description of data set [2]: in vitro. Conditions: human. On the procedure:
as §1
The source holds these as a separate data set.

Data set [3] in a line: in vitro. Conditions: human. The method, then: as §1
This is another data set of the same source.

Another data set deals with T1, chick N-cadherin (Gallus gallus, UniProt P10288).
T1 construct: expressed in transfected cells; host or cells: 3T3 fibroblasts
T1 sequence (P10288 165-912): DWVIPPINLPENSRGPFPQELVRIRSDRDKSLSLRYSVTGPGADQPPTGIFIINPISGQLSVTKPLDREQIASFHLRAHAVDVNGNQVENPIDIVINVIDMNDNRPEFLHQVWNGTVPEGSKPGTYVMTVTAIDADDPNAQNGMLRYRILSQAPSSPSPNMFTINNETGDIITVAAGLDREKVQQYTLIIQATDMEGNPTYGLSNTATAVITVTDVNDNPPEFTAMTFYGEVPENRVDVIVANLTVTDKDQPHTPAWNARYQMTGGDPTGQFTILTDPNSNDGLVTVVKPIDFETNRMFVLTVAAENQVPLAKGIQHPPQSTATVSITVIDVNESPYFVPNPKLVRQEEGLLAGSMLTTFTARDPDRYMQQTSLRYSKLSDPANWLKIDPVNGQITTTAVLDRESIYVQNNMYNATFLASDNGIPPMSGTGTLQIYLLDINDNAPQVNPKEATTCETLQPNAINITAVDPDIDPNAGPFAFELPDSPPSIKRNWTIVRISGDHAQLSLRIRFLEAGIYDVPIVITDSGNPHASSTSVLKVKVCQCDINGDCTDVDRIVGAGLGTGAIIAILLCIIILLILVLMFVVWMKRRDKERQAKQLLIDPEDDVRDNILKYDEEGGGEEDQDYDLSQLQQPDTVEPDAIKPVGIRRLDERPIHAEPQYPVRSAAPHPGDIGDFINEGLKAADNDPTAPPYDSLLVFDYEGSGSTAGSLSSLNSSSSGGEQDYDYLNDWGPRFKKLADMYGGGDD
Description: N-cadherin dependent neurite outgrowth of rat cerebellar neurons on N-cadherin expressing 3T3 cells (Example 14). Conditions: for inhibition at 250 µg/mL: NIH3T3, 250 μg/mL, 16-18 hours; for inhibitory activity on N-cadherin dependent neurite outgrowth, in words: Tables 8 and 9, 250 or 125 μg/mL; for reduction in inhibitory activity on flanking HAV with E-cadherin amino acids: Table 8, 250 μg/mL; for activity on N-cadherin dependent neurite outgrowth at lower concentration, in words: concentrations of 125 µg/mL or below. On the procedure:
Cell culture and neurite outgrowth assays. Co-cultures of cerebellar neurons on monolayers of control 3T3 cells and monolayers of transfected 3T3 cells that express physiological levels of chick N-cadherin or human L1 were established as previously described (Williams et al., Neuron 13:583-594, 1994). In brief, 80,000 3T3 cells (control and transfected) were plated into individual chambers of an eight-chamber tissue culture slide coated with polylysine and fibronectin and cultured in DMEM/10% FCS. After 24 hours, when confluent monolayers had formed, the medium was removed and 3000 cerebellar neurons isolated from post-natal day 2-3 rats were plated into each well in SATO media (Doherty et al., Nature 343:464-466, 1990) supplemented with 2% FCS. All of the test peptides were added immediately before the neurons as a 2×stock prepared in SATO/2% FCS. The co-cultures were maintained for 16-18 hours, at which time they were fixed and immunostained for GAP-43 which is present only in the neurons and delineates the neuritic processes. The mean length of the longest neurite per cell was measured for 150-200 neurons sampled in replicate cultures as previously described (Williams et al., Neuron 13:583-594, 1994). […] Dose-response curves were evaluated and the EC50 values determined.
Effects of cyclic HAV peptides on N-cadherin function. The ability of N-Ac-CHAVC-NH2 (SEQ ID NO:10; compound 1) to inhibit neurite outgrowth was initially tested. This cyclic peptide has the cadherin CAR sequence (HAV) and no flanking amino acid residues. Neurons were cultured on confluent monolayers of control (untransfected) and N-cadherin expressing 3T3 cells for 16-18 hours. The cells were then fixed and the length of the longest neurite on 150-200 neurons was determined by standard assay, as described above. FIG. 24 gives the mean neurite length in a representative experiment where cerebellar neurons have been cultured over control and N-cadherin expressing cells. In the absence of peptide, the mean length of the longest neurite per cell was approximately double on the N-cadherin expressing cells, as compared to 3T3 cells. This response requires N-cadherin function in both the neuron and transfected fibroblast.

The nature of data set [4]: in vitro. Conditions: human. The method, then:
as §1
This is another data set of the same source.

As for `CC[C@H](C)[C@@H]1NC(=O)[C@H](CC(=O)O)NC(=O)[C@H](C(C)C)NC(=O)[C@H](C)NC(=O)[C@H](Cc2c[nH]cn2)NC(=O)[C@H](C)NC(=O)[C@@H](N)CSSC[C@@H](C(N)=O)NC1=O` (H-CAHAVDIC-NH2; disulfide 1-8), the IC50 in “in vitro [1]”, in the data set “in vitro [2]”, in the data set “in vitro [3]” and in the data set “in vitro [4]” was more than 100 µM each time. In addition, on chick N-cadherin, the inhibition at 250 µg/mL was -3.7 ± 2.9%. The “inhibitory activity on N-cadherin dependent neurite outgrowth, in words” value (from here on “inhibitory activity … in words”) on chick N-cadherin is on record as “total loss of activity”; on chick N-cadherin (listed as compound 15), “lost activity”.
On to `CC(C)[C@@H]1NC(=O)[C@H](C)NC(=O)[C@H](Cc2c[nH]cn2)NC(=O)[C@H](C)NC(=O)[C@@H](N)CSSC[C@@H](C(N)=O)NC(=O)[C@H](CC(=O)O)NC1=O` [H-CAHAVDC-NH2, H-Cys-Ala-His-Ala-Val-Asp-Cys-NH2] (H-CAHAVDC-NH2; disulfide 1-7), for which the IC50 in the data set “in vitro [1]”, in the data set “in vitro [2]”, in “in vitro [3]” and in the data set “in vitro [4]” was more than 100 µM throughout. In addition, the inhibition at 250 µg/mL at chick N-cadherin was 1.3 ± 13%.
In the case of `CC(C)[C@@H]1NC(=O)CNC(=O)[C@H](Cc2c[nH]cn2)NC(=O)[C@H](C)NC(=O)[C@@H](N)CSSC[C@@H](C(N)=O)NC(=O)[C@H](CC(=O)O)NC1=O` [H-CAHGVDC-NH2, reference compound] (H-CAHGVDC-NH2; disulfide 1-7), the IC50 in the data set “in vitro [1]”, in the data set “in vitro [2]”, in the data set “in vitro [3]” and in “in vitro [4]” was more than 100 µM throughout. Moreover, the inhibition at 250 µg/mL at chick N-cadherin is 5.7 ± 7.8%.
Take `CC(=O)N[C@H]1CSSC[C@@H](C(N)=O)NC(=O)[C@H](CC(=O)O)NC(=O)[C@H](C(C)C)NC(=O)[C@H](C)NC(=O)[C@H](Cc2cnc[nH]2)NC1=O` [N-Ac-CHAVDC-NH2] (Ac-CHAVDC-NH2; disulfide 1-6): the EC50 on chick N-cadherin (from dose-response curve) was 93 µM.
For the compound `CC(=O)N[C@H]1CSSC[C@@H](C(N)=O)NC(=O)[C@H](CO)NC(=O)[C@H](C(C)C)NC(=O)CNC(=O)[C@H](Cc2c[nH]cn2)NC1=O` [N-Ac-CHGVSC-NH2, reference compound] (Ac-CHGVSC-NH2; disulfide 1-6), the IC50 in the data set “in vitro [1]”, in the data set “in vitro [2]”, in the data set “in vitro [3]” and in the data set “in vitro [4]” was more than 100 µM throughout. The inhibition at 250 µg/mL at chick N-cadherin was -6.7 ± 5.8%.
On to `CC(=O)N[C@H]1CSSC[C@@H](C(N)=O)NC(=O)[C@H](C(C)C)NC(=O)[C@H](C)NC(=O)[C@H](Cc2c[nH]cn2)NC(=O)[C@H](CO)NC1=O` [N-Ac-CSHAVC-NH2, N-Ac-Cys-Ser-His-Ala-Val-Cys-NH2] (Ac-CSHAVC-NH2; disulfide 1-6), for which the IC50 in “in vitro [1]”, in the data set “in vitro [2]”, in the data set “in vitro [3]” and in the data set “in vitro [4]” was more than 100 µM each time. For the same compound, the inhibition at 250 µg/mL on chick N-cadherin worked out at 11 ± 8.6%. In addition, the “reduction in inhibitory activity on flanking HAV with E-cadherin amino acids” value (“reduction in inhibitory activity” for short) on chick N-cadherin was “complete”.
For the compound `CC(=O)N[C@H]1CSSC[C@@H](C(N)=O)NC(=O)[C@H](C(C)C)NC(=O)CNC(=O)[C@H](Cc2c[nH]cn2)NC(=O)[C@H](CO)NC1=O` [N-Ac-CSHGVC-NH2, reference compound] (Ac-CSHGVC-NH2; disulfide 1-6), the IC50 in the data set “in vitro [1]”, in the data set “in vitro [2]”, in “in vitro [3]” and in the data set “in vitro [4]” was more than 100 µM in each case. For the same compound, the inhibition at 250 µg/mL against chick N-cadherin is 12.5 ± 7.5%.
Regarding `CC(=O)N[C@H]1CSSC[C@@H](C(N)=O)NC(=O)[C@H](Cc2c[nH]cn2)NC(=O)CNC(=O)[C@H](C(C)C)NC1=O` [N-Ac-CVGHC-NH2, reference compound] (Ac-CVGHC-NH2; disulfide 1-5 (inferred)), the IC50 in the data set “in vitro [1]”, in the data set “in vitro [2]”, in the data set “in vitro [3]” and in “in vitro [4]” was more than 100 µM in each case.
Turning to `CC[C@H](C)[C@@H]1NC(=O)[C@H](CC(=O)O)NC(=O)[C@H](C(C)C)NC(=O)CNC(=O)[C@H](Cc2c[nH]cn2)NC(=O)[C@H](C)NC(=O)[C@@H](NC(C)=O)CSSC[C@@H](C(N)=O)NC1=O` [reference compound] (Ac-CAHGVDIC-NH2; disulfide 1-8), the IC50 in “in vitro [1]”, in the data set “in vitro [2]”, in the data set “in vitro [3]” and in the data set “in vitro [4]” was more than 100 µM throughout. Further, on chick N-cadherin, the inhibition at 250 µg/mL was found to be 4.8 ± 6.5%.
Consider `CC[C@H](C)[C@@H]1NC(=O)[C@H](CC(=O)O)NC(=O)[C@H](C(C)C)NC(=O)CNC(=O)[C@H](Cc2c[nH]cn2)NC(=O)[C@H](C)NC(=O)[C@@H](N)CSSC[C@@H](C(N)=O)NC1=O` [reference compound] (H-CAHGVDIC-NH2; disulfide 1-8), for which the IC50 in the data set “in vitro [1]”, in “in vitro [2]”, in “in vitro [3]” and in the data set “in vitro [4]” was more than 100 µM throughout. At chick N-cadherin, the inhibition at 250 µg/mL worked out at 7.2 ± 8.1%.
As to “N-Ac-CAHAVC-NH2 (disulfide 1-6 (inferred))”, the “activity on N-cadherin dependent neurite outgrowth at lower concentration, in words” value in the data set with chick N-cadherin is “lost activity”.
For “N-Ac-CHAVDINGC-NH2 (disulfide 1-9 (inferred))”, the “inhibitory activity … in words” value with chick N-cadherin is “completely abrogates activity”.
Turning to “N-Ac-CHAVSSC-NH2 (disulfide 1-7 (inferred))”, in the data set with chick N-cadherin, the “reduction in inhibitory activity” value is “substantial”.
With “N-Ac-CLRAHAVC-NH2 (disulfide 1-8 (inferred))”, in the data set with chick N-cadherin, the “inhibitory activity … in words” value is “detrimental affect”.
“N-Ac-CLRAHAVDC-NH2 (disulfide 1-9 (inferred))”: in the data set with chick N-cadherin, the “inhibitory activity … in words” value is “potent inhibitors of neurite outgrowth; also recorded: partial recovery of activity” and the “activity on N-cadherin dependent neurite outgrowth at lower concentration, in words” value is recorded as “lost activity”.
Turning to “N-Ac-CRAHAVDC-NH2 (disulfide 1-8 (inferred))”, the “inhibitory activity … in words” value with chick N-cadherin is on record as “completely eliminated inhibitory activity”.
As for “N-Ac-CSHAVSC-NH2 (disulfide 1-7 (inferred))”, the “reduction in inhibitory activity” value with chick N-cadherin is “complete”.
